Source: patent US20220280558A1, “MOLECULAR HYDROGEN-CONTAINING COMPOSITION FOR PREVENTING OR IMPROVING OSTEOPOROSIS” (MiZ Company Limited, priority 2021, published 2022)

Tested on: human osteoporosis
Test: Case 1: bone density and symptoms of a person with compression fractures
Format: in vivo
Details: human patient
Source text: In the present specification, bone density can be measured by an existing measuring method, for example, by dual-energy-x-ray absorptiometry (DXA) of the trunk bone.

[1] = hydrogen gas inhalation 1.5% to 2.0% by volume

| Compound | body feeling [1] | daily activity (weeding in the garden) [1] | feeling when waking up in the morning [1] | gait [1] | pain at the compression fracture sites in the lower back [1] | tiredness [1] | bone density (inhalation from November 2020, 1.5% to 2.0% by volume hydrogen, 30 mL/min, nightly, measured March 2021 (84% in August 2020)) [%] | bone density (baseline 74%, injection once every six months, 18 months later) | bone density (injection once every six months, August 2020) [%] | bone density (injection once every six months, February 2020) [%] |
| --- | --- | --- | --- | --- | --- | --- | --- | --- | --- | --- |
| [HH] [hydrogen gas, molecular hydrogen] | feeling that the body became light | weeding in the garden becoming easy | having a good feeling and feeling refreshed | improvement in the gait | improvement | feeling tired less easily | 92 | – | – | – |
| denosumab [Pralia Subcutaneous Injection, reference compound] | – | – | – | – | – | – | – | exceeded 80% | 84 | 86 |
